A melting point compilation (Tetko et al.; mined from patent text by program, amines drawn as free bases though some values may be those of a salt)
Non-standard residues stand in square brackets, D forms with d. Residues, ends and D or L forms follow the SMILES beside them. *: point of attachment. Leu(ol) = CC(C)C[C@H](N)CO; Cbz = O=C(OCc1ccccc1)*

melting point | SMILES
132 to 134 °C | COC1=CC(=O)C(O)=C(CCCCCCCC(O)C(O)CCCCCCCC2=C(O)C(=O)C=C(OC)C2=O)C1=O (configuration not stated)
105 to 106 °C | CCN1CC2(CCN(Cc3ccccc3)CC2)OC1=O
98 to 99 °C | CNC(=O)COc1cc(C(F)(F)F)cc(C(F)(F)F)c1
86 to 88 °C | CCOC(=O)C(=O)Nc1nc(C)c(C)s1
119 °C | CC(C)c1c(Cl)nc2ncnn2c1Cl
160 to 162 °C | COc1cc(COc2cccc3c2CN(C2CCC(=O)NC2=O)C3=O)ccc1OCCN1CCCC1 (configuration not stated)
118 to 119 °C | CC(C)(C)OC(=O)NCCCCn1c(=O)c2cccc3ncc(c1=O)n32
79 to 80 °C | COC(=O)C=Cc1cncc2ccccc12
212 to 217 °C | Nc1ccc(/C=C/C(=O)CC(=O)/C=C/c2ccc(O)cc2)cc1
224 to 225 °C | Cn1cc(C2=C(C3CCCCC3)C(=O)NC2=O)c2ccccc21
195 °C | COc1ccc(S(=O)(=O)N(CC(N)=O)c2ccc(Cl)cc2Cc2c(Cl)cccc2Cl)cc1OC
85 to 86 °C | COc1ccc(CN2C(=O)C[C@H]2[C@@H]2COC(C)(C)O2)c(OC)c1
188 °C | CS(=O)(=S)OCc1ccc(C(=O)O)cc1 (configuration not stated)
228 to 230 °C | O=c1[nH][nH]c(=O)c2c(O)c3cc(Cl)ccc3nc12
72 to 73 °C | CCOP(=O)(/C=C/c1cn(C)nc1OCc1ccc(OCc2nc(-c3ccco3)oc2C)c(OC)c1)OCC
76 to 78 °C | O=[N+]([O-])c1ccc2c(c1)CCN(Cc1ccccc1)C2
225 to 229 °C | CN(Cc1ccc(NC(=O)C2=Cc3cc(OCc4cccnc4)ccc3S(=O)(=O)CC2)cc1)C1CCOCC1
174 to 175 °C | CCS(=O)(=O)c1ccc(-c2cc(C(F)(F)F)ccc2OCC(=O)O)cc1C(F)(F)F
97 to 102 °C | Cn1c(COc2ccc(CC3SC(=O)N(C(c4ccccc4)(c4ccccc4)c4ccccc4)C3=O)cc2)nc2cccnc21 (configuration not stated)
98.5 to 102 °C | CCOC(=O)COc1cccc(C(NC(C)=O)(C(=O)OCC)C(=O)OCC)c1
160 °C | C=C(Cc1ccccc1)C(=O)NN1CCN(C(=O)OC(C)(C)C)CC1
185 °C | CC(C)c1nc2ccccc2cc1S(=O)(=O)c1ccc(O)cc1
118 to 119 °C | CCOC(CNC(=S)Nc1nccs1)OCC
101 to 104 °C | CN1CCc2ccccc2C1=NNC(=O)Nc1ccc(C(F)(F)F)cc1

melting point | SMILES
96 to 98 °C | CCOC(=O)Cc1ccc(Cn2c(-c3ccc(OC4CCCC4)cc3)c(C)c3cc(OCc4ccccc4)ccc32)cc1
78 to 79 °C | COC(=O)c1oc(C(C)(C)C)cc1NC(=O)Nc1ccc(C)cc1
114 to 117 °C | CC1Cc2cc3c(cc2C(C=Cc2cccc(Cl)c2)=NN1)OCO3 (configuration not stated)
235 to 237 °C | COc1cc2cc3c(Nc4ccc(Sc5nccn5C)c(Cl)c4)c(C#N)cnc3cc2cc1OCCn1nccn1
191 °C | Cc1cccc(-c2sc(N)nc2-c2ccnc(-c3ccc(OCC(N)=O)cc3)c2)n1
67 to 68 °C | CCCCCCCCCCCCC(OC(C)=O)C1=CC(=O)OC1O (configuration not stated)
179 to 181 °C | COC(=O)c1ccc(-n2c(C)nc3cc(C#N)ccc32)cc1
181 to 183 °C | CC(C)C[C@@H](CO)NC(=O)[C@H](Cc1c[nH]cn1)NC(=O)[C@H](Cc1ccccc1)NC(=O)OCc1ccccc1 (Cbz-Phe-His-[Leu(ol)])
86 °C | C[C@H]1CN(c2ccc(C(F)(F)F)c(Cl)n2)CCN1C(=O)OC(C)(C)C
> 260 °C | O=C(O)c1cnc(N2CCC(NS(=O)(=O)c3ccc4ccccc4c3)CC2)nc1
160 °C | O=C(Nc1cccnc1Cl)c1ccccc1[N+](=O)[O-]
133 to 134 °C | CCOC(=O)c1c(Oc2ccc(Cl)cc2[N+](=O)[O-])c2ccccc2n1C
207 to 209 °C | N#CC(N)=C(C#N)N=C=CCc1cnn(-c2c(Cl)cc(C(F)(F)F)cc2Cl)n1
155 to 157 °C | COc1ccc2c3c(cn2S(=O)(=O)c2c(C(C)C)cc(C(C)C)cc2C(C)C)C[C@H]2N(C)C(=O)CO[C@]2(C)c13 (relative stereo)
109 to 111 °C | COCCOc1cc(NC(=O)OC(C)(C)C)c([N+](=O)[O-])cc1I
105 to 107 °C | CCOC(=O)C1=C(C)NC(C(Nc2ccccc2C(=O)O)SCc2ccccc2)=C(C(=O)OCC)C1c1cccc([N+](=O)[O-])c1 (configuration not stated)
134 to 136 °C | O=c1c2cc(Oc3ccc(Cl)cc3)ccc2nnn1Cc1cccnc1
128 to 139 °C | CS(=O)(=O)NC1CCN(C(=O)Cn2nc(-c3ccncc3)cc2Cc2ccc(F)cc2)CC1
105 to 108 °C | CSC1=Nc2ccccc2Cn2nnnc21
88 to 90 °C | CNC(=S)NS(=O)(=O)C(F)(F)F
186 to 187 °C | CSC(=O)C(=O)c1nsc(NC=O)n1
92 to 94 °C | COc1ccc(C(=O)c2noc(CC#N)n2)cc1
164 to 166 °C | Cc1nc(N2CCc3ccccc3CC2)c(C#N)c(=O)n1N(C)C(=O)OC(C)(C)C
194 to 195 °C | N#Cc1cccc(-n2cnc(-c3ccccn3)n2)c1

melting point | SMILES
194 °C | CN(C)c1nc(NCc2ccc(NC(=O)C3CCN(Cc4ccccc4)CC3)cc2)c2ccc(I)cc2n1
160 to 169 °C | O=C(Nc1ccc(N2CCC(NC[C@H](O)COc3cccc4[nH]c(=O)[nH]c34)CC2)cc1)c1ccc2c(c1)OCO2
149 to 150 °C | O=C(Nc1ccc(-n2nc(C(F)(F)F)cc2OC(F)F)cc1)c1cccnc1F
76 to 78 °C | C=CCSc1nnc(Cl)c2ccccc12
95 to 96 °C | COC(=O)c1nc(-c2ccc(C)c(OC)c2F)cc(N)c1Cl
110 to 111 °C | Nc1ccc(SCc2nc(Cl)ccc2Cl)cc1
195 °C | O=C1O[C@@H](Cn2ccnn2)CN1c1ccc(-c2ccc(C3=NOC(CS(=O)(=O)CCc4ccncc4)C3)nc2)c(F)c1 (some centres not stated)
95 to 97 °C | CC(=O)OCC(C)(C(=O)OC(C)(C)C)C(=O)c1ccccc1 (configuration not stated)
153 to 155 °C | CCOC(=O)c1sc(C)c2nc(OCC)n(Cc3ccc(-c4ccccc4C#N)cc3)c12
183 to 185 °C | COc1ccc(CS(=O)(=O)c2cc3c(OC)cc(OC)cc3oc2=O)cc1
207 to 209 °C | CC(C)(C)c1cc(CCc2ccccc2NC(=O)N2CCN(C(=O)c3ccccc3)CC2)cc(C(C)(C)C)c1O
296 to 297 °C | COc1cc2nc(N3CCN(c4ccc(O)nn4)CC3)nc(N)c2cc1OC
220 °C | N#CC1=C(c2cc3ccccc3s2)Nc2n[nH]cc2C1c1cccc2nonc12 (configuration not stated)
218 to 220 °C | CCOCc1nc2c(N)nc3cc(-c4ccc(F)nc4)cnc3c2n1CC(C)(C)O
131 to 133 °C | CN(C)C=C1CN=Cc2ccccc2C1=O
140 to 143 °C | CCC(=O)NCCC1=CCc2cc(F)c(OC)cc21
128 to 130 °C | COC(=O)c1ccc(C(O)C#Cc2cc(-c3cccs3)c(OC)cc2OC)cc1 (configuration not stated)
141 to 142 °C | CCCc1cn(C)cc(-c2ccc(Cl)c(C(F)(F)F)c2)c1=O
141 to 142 °C | CCOC(=O)C1CCc2c([nH]c3ccc(Cl)cc23)C1 (configuration not stated)
181 °C | O=C(O)[C@@H]1CCCN1C(=O)C1CCCCN1 (some centres not stated)
105 °C | O=C(O)CCCCCCCCCCCCCCCCC(=O)n1nnc2ccccc21
124 to 127 °C | Cc1ccc(C)c(NC(=O)N2CCC(c3nc(C4=NOC(c5ccccc5)C4)cs3)CC2)c1 (configuration not stated)
163 to 165 °C | CNC(=O)c1cn(C)nc1[N+](=O)[O-]
119 to 121 °C | COC(=O)c1nc(Cl)c(Cl)c(N)c1OC

melting point | SMILES
230 to 231 °C | CNC(=O)c1sc(C(C)(C)C)cc1N
130 to 133 °C | CCOc1cc2c(cn1)[nH]c1ccccc12
102 °C | Cc1ccc(S(=O)(=O)OC(C)(c2ccccc2)C(F)(F)F)cc1 (configuration not stated)
223 to 226 °C | CC(=O)NC(CSCc1ccc(-c2nc(-c3ccccc3)cc(-c3ccccc3)n2)cc1)C(=O)O (configuration not stated)
> 250 °C | COc1cc2ncc(C#N)c(Nc3ccc(O)cc3O)c2cc1OC
130 to 132 °C | Cc1c(CN(C)C)cc(C(C)(C)CC(C)(C)C)c(O)c1C
230 to 232 °C | O=C1c2ccccc2C(=O)N1Cc1cn2ccccc2n1
131 to 134 °C | Nc1ccnc(CSCCO)n1
134 to 135 °C | O=C(Nc1cccc(C(F)(F)F)c1)c1ccccc1[N+](=O)[O-]
91 to 93 °C | CCOC(=O)N(C)CC(N)=S
106 to 108 °C | COP(=O)(CNC(=O)[C@H](C)NC(=O)[C@H](C)NC(=O)OCc1ccccc1)OC
195 to 196 °C | COc1cc(OCC(=O)O)cc2c1C(=O)CC1(CCCCC1)S2
217 to 221 °C | COc1ccc(-c2nc3ccc(C(C)(C)CNC=O)cc3[nH]2)cn1
157 to 159 °C | O=C(NC1CCCc2cc(C(=O)Nc3ccncc3)ccc21)OCc1ccccc1 (configuration not stated)
230 to 232 °C | O=C(O)CNCCn1nc(-c2c(-c3ccccc3)nn3ccccc23)ccc1=O
130 to 133 °C | CCc1nc2c(cnn2CC)c(NC2CCOCC2)c1CNC(=O)c1cccc(C(=O)NCc2cc(Cl)cc(-c3cccc(CN4CC5CC4CN5)c3)c2)c1 (configuration not stated)
> 300 °C | O=C(O)c1cn(C2CC2)c2nc(N3Cc4cccc(Cl)c4C3)c(F)cc2c1=O
94 to 96 °C | CC(=O)NC[C@H]1CN(c2ccc(N3CCC(N)(C#N)CC3)c(F)c2)C(=O)O1
153 to 157 °C | O=C(O)Cc1ccc(S(=O)(=O)c2ccc(Cl)cc2)cc1
132 to 134 °C | CCOc1cc2oc(=O)c3c(c2cc1OCC)CCN(CCN1CC2CCC(CC2)C1)C3
200 °C | COC(=O)Cc1c(C)nc(SC)nc1O
260 to 262 °C | Nc1ncnc2c1ncn2C(c1ccccc1)(c1ccccc1)c1ccccc1
123 to 124 °C | CCn1nc(C(F)(F)F)c(CS(=O)(=O)C2=NOC(C)(CCl)C2)c1Cl (configuration not stated)

SMILES | melting point
CCCCCCc1cc2c(s1)-n1c(C)nnc1CN=C2c1ccccc1C | 135 to 137 °C
CCOC(=O)C(=O)Nc1ccccc1Cn1cc(C(=O)OC)c2ccccc21 | 174 to 177 °C
